Experimental findings from patent US20140113898A1, “BISARYLSULFONE AND DIALKYLARYLSULFONE COMPOUNDS AS CALCIUM CHANNEL BLOCKERS” (Zalicus Pharmaceuticals Ltd., priority 2010, published 2014) are described below.

Structures are written as SMILES.

What all share (assay type): cell-based
Test [1] concerns the target T1, CaV2.2 (Homo sapiens, UniProt Q00975).
T1 construct: expressed in transfected cells; host or cells: unnamed doxycycline-inducible cell line
In words: High-throughput CaV2.2/Kir2.3 FLIPR fluorescent assay. Particulars: Table 4; Fluo-4 FLIPR; closed or inactivated state not stated; read-out: FLIPR data CaV2.2. An outline of the steps:
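IC50 was derived by logistic fitting of the FLIPR Fluo-4 signal recorded over 3 min after a 130 mM KCl stimulus. Before stimulation, cells (channel expression induced with doxycycline, 29 °C on assay day) were kept in pH 7.4 buffer with 2 mM KCl for the closed-state format or 12.5 mM KCl for the inactivated-state format.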

Test [2] has as its target T2, CaV3.1 (Homo sapiens, UniProt O43497).
T2 construct: expressed in transfected cells; host or cells: unnamed doxycycline-inducible cell line
In words: High-throughput CaV3.1 T-type FLIPR fluorescent assay. The following applies: Table 4; Fluo-4 FLIPR. As for the experimental part: Cells were plated in 384-well, clear-bottom, black-walled, poly-D-lysine coated plates (Becton Dickinson, Franklin Lake, N.J.) 2 days prior to use in the FLIPR assay. 100 μL of cells (2.0×10^6 cell/mL) containing doxycyline (Sigma-Aldrich, 1.5 μg/mL; to induce channel expression) were added to each well using a Multidrop (Thermo Scientific, Waltham, Mass.) and were maintained in 5% CO2 incubator at 37° C. On the morning of the assay, cells were transferred to a 5% CO2 incubator at 29° C.
Cells were washed with a wash buffer containing (in mM): 118 NaCl, 18.4 HEPES, 11.7 D-glucose, 0.05 CaCl2, 0.5 MgSO4, 1 KCl, and 1.2 KH2PO4, with the pH adjusted to 7.2 with NaOH. 4.4 μM of the fluorescent indicator dye, Fluo-4 (Invitrogen), prepared in pluronic acid
(Sigma-Aldrich), was loaded into the wells and incubated for 45 minutes at 29° C. in 5% CO2. Cells were then rinsed with the following low Ca^2+ buffer (in mM): 0.34 Na2HPO4, 4.2 NaHCO3, 0.44 KH2PO4, 0.41 MgSO4, 0.49 MgCl2-6H2O, 20 HEPES, 5.5 D-Glucose, 137 NaCl, 5.3 KCl, and 0.001 CaCl2, with 0.1% BSA and the pH adjusted to 7.2 with NaOH. Concentration-dependent response curves were generated from 5 mM stock solutions prepared in DMSO (Sigma-Aldrich) and diluted in the buffer containing low Ca^2+ and incubated for 20 minutes at 29° C. in 5% CO2. Calcium entry was evoked with an addition of (in mM): 0.34 Na2HPO4, 4.2 NaHCO3, 0.44 KH2PO4, 0.41 MgSO4, 0.49 MgCl2-6H2O, 20 HEPES, 5.5 D-Glucose, 137 NaCl, 5.3 KCl, and 6 CaCl2, with 0.1% BSA and the pH adjusted to 7.2 with NaOH. A change in the Fluo-4 fluorescence signal was assessed using FLIPR^TETRA™ instrument (Molecular Devices, Sunnyvale, Calif.) for 3 minutes following the elevation of extracellular KCl using an illumination wavelength of 470-495 nm with emissions recorded at 515-575 nm.
Concentration-dependent response curves were obtained by comparing the fluorescence signal in the presence of compound and fitted with a logistic function (1) to obtain the concentration that inhibited 50% (IC50) of the RLU signal using OriginPro v.7.5 software (OriginLab, Northampton, Mass.).
To assess the quality of the FLIPR assays the Z-factor (2) was used to quantify the suitability of the assay conditions using the following equation: […]
Data are expressed as mean and standard deviation (SD).

The target of test [3] is T3, CaV3.2 (Homo sapiens, UniProt O95180).
T3 construct: expressed in transfected cells; host or cells: unnamed doxycycline-inducible cell line
In words: High-throughput CaV3.2/Kir2.3 T-type FLIPR fluorescent assay. The following applies: Table 4; Fluo-4 FLIPR; closed or inactivated state not stated. An outline of the steps: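 Doxycycline-induced cells loaded with Fluo-4, preincubated 20 min at 29°C with compound in 2 mM KCl (closed-state) or 7.6 mM KCl (inactivated-state) buffer, pH 7.4. Calcium entry triggered by 12 mM or 14.5 mM KCl respectively; fluorescence read 3 min by FLIPR, IC50 from logistic fit.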

T1 sequence (Q00975 whole entry): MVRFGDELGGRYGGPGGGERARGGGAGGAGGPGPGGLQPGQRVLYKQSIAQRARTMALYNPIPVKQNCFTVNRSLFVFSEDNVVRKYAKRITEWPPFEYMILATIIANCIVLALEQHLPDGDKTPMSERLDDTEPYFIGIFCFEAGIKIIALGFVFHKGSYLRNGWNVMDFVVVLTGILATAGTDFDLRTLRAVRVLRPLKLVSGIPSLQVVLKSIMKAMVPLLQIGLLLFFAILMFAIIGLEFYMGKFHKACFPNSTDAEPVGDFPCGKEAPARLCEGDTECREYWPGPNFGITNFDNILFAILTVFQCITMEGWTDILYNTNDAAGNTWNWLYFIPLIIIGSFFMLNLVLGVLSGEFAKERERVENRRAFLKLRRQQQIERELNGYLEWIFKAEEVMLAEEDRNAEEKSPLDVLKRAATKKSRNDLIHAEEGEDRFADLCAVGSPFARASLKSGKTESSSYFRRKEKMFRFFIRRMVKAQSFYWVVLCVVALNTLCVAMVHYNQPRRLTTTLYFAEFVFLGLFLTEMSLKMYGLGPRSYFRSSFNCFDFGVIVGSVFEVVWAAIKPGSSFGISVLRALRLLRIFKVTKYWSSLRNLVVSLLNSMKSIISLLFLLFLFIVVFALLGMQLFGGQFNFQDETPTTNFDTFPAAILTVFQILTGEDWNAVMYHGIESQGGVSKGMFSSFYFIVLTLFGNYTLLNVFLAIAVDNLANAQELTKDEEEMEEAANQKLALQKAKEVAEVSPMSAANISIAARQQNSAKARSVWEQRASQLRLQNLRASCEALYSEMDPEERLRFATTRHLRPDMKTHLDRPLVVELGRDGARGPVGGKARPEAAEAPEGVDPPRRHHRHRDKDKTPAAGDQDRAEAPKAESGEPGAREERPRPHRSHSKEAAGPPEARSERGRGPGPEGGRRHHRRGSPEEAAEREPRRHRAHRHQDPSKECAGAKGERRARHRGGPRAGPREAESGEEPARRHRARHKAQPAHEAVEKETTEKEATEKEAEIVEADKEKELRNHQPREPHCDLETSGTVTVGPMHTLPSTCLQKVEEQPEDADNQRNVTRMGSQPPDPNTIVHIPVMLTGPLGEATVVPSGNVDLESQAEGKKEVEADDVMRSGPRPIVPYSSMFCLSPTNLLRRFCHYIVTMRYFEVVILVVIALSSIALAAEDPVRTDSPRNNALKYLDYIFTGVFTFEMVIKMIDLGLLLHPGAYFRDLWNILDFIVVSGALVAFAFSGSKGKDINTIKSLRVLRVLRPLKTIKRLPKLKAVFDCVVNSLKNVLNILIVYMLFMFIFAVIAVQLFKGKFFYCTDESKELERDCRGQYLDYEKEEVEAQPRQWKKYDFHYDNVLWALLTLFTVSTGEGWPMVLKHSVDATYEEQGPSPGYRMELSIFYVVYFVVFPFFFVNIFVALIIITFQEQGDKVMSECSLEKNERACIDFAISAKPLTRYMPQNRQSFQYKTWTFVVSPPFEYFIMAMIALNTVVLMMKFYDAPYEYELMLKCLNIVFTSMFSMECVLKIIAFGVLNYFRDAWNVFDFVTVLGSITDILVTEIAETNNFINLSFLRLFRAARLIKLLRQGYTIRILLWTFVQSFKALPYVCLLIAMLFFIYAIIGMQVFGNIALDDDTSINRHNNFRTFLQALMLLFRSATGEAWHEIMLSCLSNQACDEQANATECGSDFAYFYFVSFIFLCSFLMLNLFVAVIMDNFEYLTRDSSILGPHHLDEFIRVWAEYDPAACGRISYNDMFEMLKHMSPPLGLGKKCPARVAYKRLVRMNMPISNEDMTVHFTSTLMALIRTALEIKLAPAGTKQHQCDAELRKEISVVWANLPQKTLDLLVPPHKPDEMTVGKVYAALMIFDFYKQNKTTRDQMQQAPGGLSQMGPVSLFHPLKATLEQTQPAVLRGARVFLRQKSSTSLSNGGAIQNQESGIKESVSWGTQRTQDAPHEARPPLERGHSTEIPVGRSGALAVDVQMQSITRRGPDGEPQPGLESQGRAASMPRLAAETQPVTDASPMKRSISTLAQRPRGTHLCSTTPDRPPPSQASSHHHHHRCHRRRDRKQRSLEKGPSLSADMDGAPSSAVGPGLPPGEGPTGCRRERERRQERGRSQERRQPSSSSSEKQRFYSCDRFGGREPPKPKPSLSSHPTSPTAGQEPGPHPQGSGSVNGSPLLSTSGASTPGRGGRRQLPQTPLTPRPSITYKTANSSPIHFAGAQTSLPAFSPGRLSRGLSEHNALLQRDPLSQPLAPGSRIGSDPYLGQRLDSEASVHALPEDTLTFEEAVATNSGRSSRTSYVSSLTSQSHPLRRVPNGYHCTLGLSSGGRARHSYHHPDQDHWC
T1 sequence (P54284 whole entry partner): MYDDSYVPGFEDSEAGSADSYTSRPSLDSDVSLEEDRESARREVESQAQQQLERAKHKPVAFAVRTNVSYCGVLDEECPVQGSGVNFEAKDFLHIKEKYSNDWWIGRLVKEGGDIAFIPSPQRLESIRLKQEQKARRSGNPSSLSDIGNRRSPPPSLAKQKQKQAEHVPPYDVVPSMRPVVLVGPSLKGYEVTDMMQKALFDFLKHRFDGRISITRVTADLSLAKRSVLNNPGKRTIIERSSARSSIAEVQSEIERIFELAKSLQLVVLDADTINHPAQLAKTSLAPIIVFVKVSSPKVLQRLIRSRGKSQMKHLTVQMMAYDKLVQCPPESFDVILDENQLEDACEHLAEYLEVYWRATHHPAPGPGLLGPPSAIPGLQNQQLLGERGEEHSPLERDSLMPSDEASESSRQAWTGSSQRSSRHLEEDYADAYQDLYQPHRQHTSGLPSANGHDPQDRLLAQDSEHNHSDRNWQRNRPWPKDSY
T1 sequence (P54289 25-946 partner limits assumed): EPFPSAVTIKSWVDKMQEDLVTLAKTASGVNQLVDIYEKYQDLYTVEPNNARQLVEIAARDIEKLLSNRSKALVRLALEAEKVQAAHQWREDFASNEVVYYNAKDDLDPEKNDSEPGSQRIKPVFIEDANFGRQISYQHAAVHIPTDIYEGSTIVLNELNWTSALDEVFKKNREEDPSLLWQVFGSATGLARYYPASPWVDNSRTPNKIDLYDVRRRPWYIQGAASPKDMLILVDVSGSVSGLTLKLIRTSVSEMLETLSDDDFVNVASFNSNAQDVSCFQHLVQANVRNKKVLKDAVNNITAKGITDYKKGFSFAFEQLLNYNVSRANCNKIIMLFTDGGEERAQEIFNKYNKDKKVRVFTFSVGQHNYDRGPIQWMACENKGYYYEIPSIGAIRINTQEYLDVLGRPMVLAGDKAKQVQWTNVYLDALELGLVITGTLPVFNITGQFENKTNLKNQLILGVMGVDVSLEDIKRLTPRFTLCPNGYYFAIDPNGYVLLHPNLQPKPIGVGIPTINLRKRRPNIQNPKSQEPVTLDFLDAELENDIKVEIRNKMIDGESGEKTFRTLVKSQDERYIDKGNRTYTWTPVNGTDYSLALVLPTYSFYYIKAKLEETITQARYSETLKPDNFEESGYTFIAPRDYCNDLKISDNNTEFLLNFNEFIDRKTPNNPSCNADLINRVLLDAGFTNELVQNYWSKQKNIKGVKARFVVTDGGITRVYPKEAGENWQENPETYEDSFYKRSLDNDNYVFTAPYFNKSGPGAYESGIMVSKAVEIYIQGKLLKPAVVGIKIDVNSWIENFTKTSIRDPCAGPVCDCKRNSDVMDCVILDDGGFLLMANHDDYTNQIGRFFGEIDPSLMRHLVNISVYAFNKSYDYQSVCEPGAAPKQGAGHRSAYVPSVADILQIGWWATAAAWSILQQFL
T1 sequence (P54289 947-1103 partner limits assumed): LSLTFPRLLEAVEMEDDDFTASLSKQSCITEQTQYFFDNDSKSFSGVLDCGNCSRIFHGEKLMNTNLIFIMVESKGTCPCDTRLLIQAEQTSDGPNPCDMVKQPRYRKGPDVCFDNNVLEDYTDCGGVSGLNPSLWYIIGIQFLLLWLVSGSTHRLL

On to `CS(=O)(=O)c1cc(C(F)(F)F)ccc1C(=O)NCc1cccc(S(=O)(=O)c2cccc(C(F)(F)F)c2)c1` [Compound 28, 2-(methylsulfonyl)-4-(trifluoromethyl)-N-(3-((3-(trifluoromethyl)phenyl)sulfonyl)benzyl)benzamide], for which the IC50 in test [1] was determined as 190 nM; in test [2], 1510 nM; in test [3], 730 nM.
With `O=C(NCc1cccc(S(=O)(=O)c2cccc(C(F)(F)F)c2)c1)c1ccnn1CC(F)(F)F` [Compound 29, 1-(2,2,2-trifluoroethyl)-N-(3-((3-(trifluoromethyl)phenyl)sulfonyl)benzyl)-1H-pyrazole-5-carboxamide], the IC50 in test [1] came out at 340 nM; in test [2], 1850 nM; in test [3], 600 nM.
On to `COc1cc(C(=O)NCc2cccc(S(=O)(=O)c3cccc(C(F)(F)F)c3)c2)cc(Cl)n1` [Compound 30], for which the IC50 was determined as 310 nM in test [1], 1110 nM in test [2] and 510 nM in test [3].
For `O=C(NCc1cccc(S(=O)(=O)c2cccc(C(F)(F)F)c2)c1)c1ccnc(C(F)(F)F)c1` [Compound 31, 2-(trifluoromethyl)-N-(3-((3-(trifluoromethyl)phenyl)sulfonyl)benzyl)isonicotinamide] the same measures were 390 nM, 1750 nM and 730 nM.
For `O=C(NCc1cccc(S(=O)(=O)c2cccc(C(F)(F)F)c2)c1)c1cn2cc(C(F)(F)F)ccc2n1` [Compound 32, 6-(trifluoromethyl)-N-(3-((3-(trifluoromethyl)phenyl)sulfonyl)benzyl)imidazo[1,2-a]pyridine-2-carboxamide] the same measures were 160 nM, 1400 nM and 370 nM.
Regarding `CC(C)S(=O)(=O)c1cc(C(F)(F)F)cnc1C(=O)NCc1ccc(S(=O)(=O)c2cccc(C(F)(F)F)c2)cc1` [Compound 33, 3-(isopropylsulfonyl)-5-(trifluoromethyl)-N-(4-((3-(trifluoromethyl)phenyl)sulfonyl)benzyl)picolinamide], the IC50 in test [1] was determined as 100 nM; in test [2], 920 nM; in test [3] it was 1010 nM.
For `O=C1c2cc(C(F)(F)F)nn2CCN1Cc1cccc(S(=O)(=O)c2cccc(C(F)(F)F)c2)c1` [Compound 34, 2-(trifluoromethyl)-5-(3-((3-(trifluoromethyl)phenyl)sulfonyl)benzyl)-6,7-dihydropyrazolo[1,5-a]pyrazin-4(5H)-one] the same measures were 590 nM, 1630 nM and 970 nM.
`O=C1c2cc(C(F)(F)F)nn2CCN1Cc1ccccc1S(=O)(=O)c1cccc(C(F)(F)F)c1` [Compound 35, 2-(trifluoromethyl)-5-(2-((3-(trifluoromethyl)phenyl)sulfonyl)benzyl)-6,7-dihydropyrazolo[1,5-a]pyrazin-4(5H)-one]: the IC50 in test [1] was found to be 1220 nM; in test [2], 1850 nM; in test [3] it was 1740 nM.
For `O=C(NCc1ccccc1S(=O)(=O)c1cccc(C(F)(F)F)c1)c1ccc(Cl)c(F)c1` [Compound 36, 4-chloro-3-fluoro-N-(2-((3-(trifluoromethyl)phenyl)sulfonyl)benzyl)benzamide] the same measures were 830 nM, 410 nM and 770 nM.
For `O=C(NCc1ccccc1S(=O)(=O)c1cccc(C(F)(F)F)c1)c1cc(F)cc(Cl)c1` [Compound 37, 3-chloro-5-fluoro-N-(2-((3-(trifluoromethyl)phenyl)sulfonyl)benzyl)benzamide] the same measures were 680 nM, 1420 nM and 1610 nM.
For `O=C(NCc1ccccc1S(=O)(=O)c1cccc(C(F)(F)F)c1)c1ccc(C(F)(F)F)cn1` [Compound 39, 5-(trifluoromethyl)-N-(2-((3-(trifluoromethyl)phenyl)sulfonyl)benzyl)picolinamide] the same measures were 740 nM, 1040 nM and 1250 nM.
As for `Cn1nc(C(F)(F)F)cc1C(=O)NCc1ccccc1S(=O)(=O)c1cccc(C(F)(F)F)c1` [Compound 41, 1-methyl-3-(trifluoromethyl)-N-(2-((3-(trifluoromethyl)phenyl)sulfonyl)benzyl)-1H-pyrazole-5-carboxamide], the IC50 is 380 nM in test [1], 920 nM in test [2] and 1390 nM in test [3].
Consider `CS(=O)(=O)c1cc(C(=O)NCc2ccccc2S(=O)(=O)c2cccc(C(F)(F)F)c2)cc(C(F)(F)F)n1` [Compound 42, 2-(methylsulfonyl)-6-(trifluoromethyl)-N-(2-((3-(trifluoromethyl)phenyl)sulfonyl)benzyl)isonicotinamide], for which the IC50 in test [1] worked out at 640 nM; in test [2], 2890 nM; in test [3], 3240 nM.
For `CS(=O)(=O)c1cc(C(F)(F)F)cnc1C(=O)NCc1ccccc1S(=O)(=O)c1cccc(C(F)(F)F)c1` [Compound 43, 3-(methylsulfonyl)-5-(trifluoromethyl)-N-(2-((3-(trifluoromethyl)phenyl)sulfonyl)benzyl)picolinamide] the same measures were 670 nM, 1420 nM and 3380 nM.
Regarding `CC(C)S(=O)(=O)c1cc(C(F)(F)F)cnc1C(=O)NCc1ccccc1S(=O)(=O)c1cccc(C(F)(F)F)c1` [Compound 44, 3-(isopropylsulfonyl)-5-(trifluoromethyl)-N-(2-((3-(trifluoromethyl)phenyl)sulfonyl)benzyl)picolinamide], the IC50 in test [1] was 230 nM; in test [2], 720 nM; in test [3], 1030 nM.
`CS(=O)(=O)c1cc(C(F)(F)F)ccc1C(=O)NCc1ccccc1S(=O)(=O)c1cccc(C(F)(F)F)c1` [Compound 47, 2-(methylsulfonyl)-4-(trifluoromethyl)-N-(2-((3-(trifluoromethyl)phenyl)sulfonyl)benzyl)benzamide]: the IC50 in test [1] is 590 nM; in test [2] it was 270 nM; in test [3] it was 2130 nM.
`O=C(NCc1ccccc1S(=O)(=O)c1cccc(C(F)(F)F)c1)c1ccc(F)c(Cl)c1` [Compound 52, 3-chloro-4-fluoro-N-(2-((3-(trifluoromethyl)phenyl)sulfonyl)benzyl)benzamide]: the values for the IC50 in test [1], in test [2] and in test [3] were 740 nM, 680 nM and 1300 nM, respectively.
For `O=C1c2ccc(C(F)(F)F)nc2CN1Cc1cccc(S(=O)(=O)c2cccc(C(F)(F)F)c2)c1` [Compound 57, 2-(trifluoromethyl)-6-(3-((3-(trifluoromethyl)phenyl)sulfonyl)benzyl)-6,7-dihydro-5H-pyrrolo[3,4-b]pyridin-5-one] the same measures were 260 nM, 6130 nM and 800 nM.
Take `N[C@H](C(=O)NCc1ccc(S(=O)(=O)c2cccc(C(F)(F)F)c2)cc1)c1ccccc1` [Compound 67, (S)-2-amino-2-phenyl-N-(4-((3-(trifluoromethyl)phenyl)sulfonyl)benzyl)acetamide]: the IC50 was 660 nM in test [1], 3640 nM in test [2] and 3740 nM in test [3].
For `O=C(NCc1ccc(S(=O)(=O)c2cccc(C(F)(F)F)c2)cc1)[C@@H]1C[C@@H](C2CCCCC2)CN1` [Compound 72, (2S,4S)-4-cyclohexyl-N-(4-((3-(trifluoromethyl)phenyl)sulfonyl)benzyl)pyrrolidine-2-carboxamide] the same measures were 760 nM, 8900 nM and 2320 nM.
